# Calls of active or inactive are those of the source.
# Columns and labels:
# [1] = biological target: T1, Histone-lysine N-methyltransferase NSD2 (Homo sapiens, UniProt O96028); assay type: biochemical
# T1 sequence (O96028 whole entry): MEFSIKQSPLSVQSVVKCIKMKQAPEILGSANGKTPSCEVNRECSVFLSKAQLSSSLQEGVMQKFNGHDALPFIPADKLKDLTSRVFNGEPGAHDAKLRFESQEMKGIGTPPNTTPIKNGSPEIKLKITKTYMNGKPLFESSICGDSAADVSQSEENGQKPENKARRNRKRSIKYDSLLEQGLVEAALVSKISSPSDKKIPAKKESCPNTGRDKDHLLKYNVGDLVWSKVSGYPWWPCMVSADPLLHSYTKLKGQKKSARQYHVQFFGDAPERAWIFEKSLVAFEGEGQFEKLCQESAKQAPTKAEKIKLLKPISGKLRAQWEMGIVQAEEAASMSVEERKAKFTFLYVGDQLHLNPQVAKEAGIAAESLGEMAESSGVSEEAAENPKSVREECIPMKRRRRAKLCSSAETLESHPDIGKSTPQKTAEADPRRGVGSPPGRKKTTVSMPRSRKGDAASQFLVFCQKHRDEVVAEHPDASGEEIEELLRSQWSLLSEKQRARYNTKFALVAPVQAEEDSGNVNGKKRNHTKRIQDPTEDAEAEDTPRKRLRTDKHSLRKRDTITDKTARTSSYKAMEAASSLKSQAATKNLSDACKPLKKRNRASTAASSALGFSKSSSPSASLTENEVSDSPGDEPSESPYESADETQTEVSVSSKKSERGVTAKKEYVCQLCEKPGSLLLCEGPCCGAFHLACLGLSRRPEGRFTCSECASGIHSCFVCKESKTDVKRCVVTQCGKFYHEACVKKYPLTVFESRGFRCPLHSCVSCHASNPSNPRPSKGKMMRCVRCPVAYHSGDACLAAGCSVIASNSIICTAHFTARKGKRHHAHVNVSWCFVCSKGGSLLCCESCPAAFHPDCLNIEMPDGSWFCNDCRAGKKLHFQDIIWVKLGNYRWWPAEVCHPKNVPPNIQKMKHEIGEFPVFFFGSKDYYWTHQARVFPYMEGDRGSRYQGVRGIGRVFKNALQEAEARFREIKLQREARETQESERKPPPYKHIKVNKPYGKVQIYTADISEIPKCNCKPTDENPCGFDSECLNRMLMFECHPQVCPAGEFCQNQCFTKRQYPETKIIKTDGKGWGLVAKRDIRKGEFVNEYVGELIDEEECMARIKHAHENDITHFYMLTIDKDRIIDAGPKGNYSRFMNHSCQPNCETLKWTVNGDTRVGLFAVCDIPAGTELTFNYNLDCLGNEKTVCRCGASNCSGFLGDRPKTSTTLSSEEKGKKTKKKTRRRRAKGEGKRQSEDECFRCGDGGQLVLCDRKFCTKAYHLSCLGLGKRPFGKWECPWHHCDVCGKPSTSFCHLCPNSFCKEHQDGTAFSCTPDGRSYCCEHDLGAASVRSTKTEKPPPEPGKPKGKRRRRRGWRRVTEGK
# [2] = biological target: DNA (cytosine-5)-methyltransferase 1 (Homo sapiens, UniProt P26358); experiment: DNMT1 methyltransferase inhibitors, confirmation, biochemical, fluorescent molecular beacon (AID 602386); assay type: functional
# Chain of DNA (cytosine-5)-methyltransferase 1 (P26358 whole entry): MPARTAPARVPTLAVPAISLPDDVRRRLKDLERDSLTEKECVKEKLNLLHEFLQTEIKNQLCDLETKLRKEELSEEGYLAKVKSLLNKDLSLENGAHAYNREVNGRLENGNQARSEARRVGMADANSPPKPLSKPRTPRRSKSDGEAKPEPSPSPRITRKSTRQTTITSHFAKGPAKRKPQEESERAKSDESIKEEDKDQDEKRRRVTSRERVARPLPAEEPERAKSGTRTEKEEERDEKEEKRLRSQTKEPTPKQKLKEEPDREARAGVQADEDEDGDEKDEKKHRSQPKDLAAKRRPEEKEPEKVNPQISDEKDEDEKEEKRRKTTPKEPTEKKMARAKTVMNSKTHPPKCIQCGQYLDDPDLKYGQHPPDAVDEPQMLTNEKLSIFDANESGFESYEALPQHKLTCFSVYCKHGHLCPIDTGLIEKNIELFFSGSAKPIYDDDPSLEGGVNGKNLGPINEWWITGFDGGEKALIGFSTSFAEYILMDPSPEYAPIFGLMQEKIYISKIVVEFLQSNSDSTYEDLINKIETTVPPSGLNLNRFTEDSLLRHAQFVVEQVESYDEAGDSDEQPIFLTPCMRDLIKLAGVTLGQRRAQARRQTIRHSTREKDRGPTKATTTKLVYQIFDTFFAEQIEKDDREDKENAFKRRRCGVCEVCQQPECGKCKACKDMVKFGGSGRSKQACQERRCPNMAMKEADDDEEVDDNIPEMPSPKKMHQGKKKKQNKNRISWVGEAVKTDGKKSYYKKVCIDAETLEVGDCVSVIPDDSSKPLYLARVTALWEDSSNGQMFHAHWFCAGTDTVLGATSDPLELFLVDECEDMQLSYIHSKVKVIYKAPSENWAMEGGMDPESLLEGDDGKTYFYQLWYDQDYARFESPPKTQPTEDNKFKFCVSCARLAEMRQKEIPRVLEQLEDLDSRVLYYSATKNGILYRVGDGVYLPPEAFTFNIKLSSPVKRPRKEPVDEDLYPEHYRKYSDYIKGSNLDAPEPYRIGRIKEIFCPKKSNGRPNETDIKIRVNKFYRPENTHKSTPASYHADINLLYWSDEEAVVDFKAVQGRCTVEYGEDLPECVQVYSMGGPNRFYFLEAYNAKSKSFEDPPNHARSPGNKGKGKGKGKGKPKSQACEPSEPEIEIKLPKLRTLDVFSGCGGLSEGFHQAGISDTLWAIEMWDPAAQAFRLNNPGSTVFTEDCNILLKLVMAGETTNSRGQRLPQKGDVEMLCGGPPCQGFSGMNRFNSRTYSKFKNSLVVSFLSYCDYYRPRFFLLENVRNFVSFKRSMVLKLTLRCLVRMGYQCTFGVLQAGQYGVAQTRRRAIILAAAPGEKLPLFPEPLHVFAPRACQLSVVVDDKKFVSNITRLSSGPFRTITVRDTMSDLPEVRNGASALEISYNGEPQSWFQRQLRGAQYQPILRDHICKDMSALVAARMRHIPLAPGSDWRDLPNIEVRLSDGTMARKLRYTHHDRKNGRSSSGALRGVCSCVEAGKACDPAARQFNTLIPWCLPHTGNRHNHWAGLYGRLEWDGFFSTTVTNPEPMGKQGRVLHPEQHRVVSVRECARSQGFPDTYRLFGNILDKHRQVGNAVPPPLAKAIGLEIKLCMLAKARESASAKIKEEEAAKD
# [3] = biological target: Adenosylmethionine-8-amino-7-oxononanoate aminotransferase (Mycobacterium tuberculosis, UniProt P9WQ81); experiment: Mycobacterium tuberculosis BioA enzyme inhibitor Measured in Biochemical System Using Plate Reader - 2163-02_Inhibitor_Dose_CherryPick_Activity.; assay type: functional, Mycobacterium tuberculosis UT205
# Chain of Adenosylmethionine-8-amino-7-oxononanoate aminotransferase (P9WQ81 whole entry): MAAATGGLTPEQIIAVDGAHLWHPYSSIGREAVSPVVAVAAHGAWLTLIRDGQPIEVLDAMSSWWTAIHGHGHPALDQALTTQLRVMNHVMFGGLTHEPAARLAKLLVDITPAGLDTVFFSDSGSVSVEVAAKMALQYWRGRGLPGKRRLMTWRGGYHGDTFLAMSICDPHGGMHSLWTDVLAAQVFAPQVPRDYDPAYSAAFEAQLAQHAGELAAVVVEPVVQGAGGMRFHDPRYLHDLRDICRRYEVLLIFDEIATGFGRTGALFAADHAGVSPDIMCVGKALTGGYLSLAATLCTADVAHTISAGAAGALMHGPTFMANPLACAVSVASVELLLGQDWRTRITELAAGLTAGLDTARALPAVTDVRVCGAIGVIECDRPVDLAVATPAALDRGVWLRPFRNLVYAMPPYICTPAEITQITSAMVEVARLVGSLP
# [4] = biological target: T2, DNA repair and recombination protein RAD54-like (Homo sapiens, UniProt Q92698); experiment: inhibitors of human RAD54 branch migration, confirmation, biochemical, fluorescence, cherry-picked samples, dose series (AID 651657); assay type: functional
# T2 sequence (Q92698 whole entry): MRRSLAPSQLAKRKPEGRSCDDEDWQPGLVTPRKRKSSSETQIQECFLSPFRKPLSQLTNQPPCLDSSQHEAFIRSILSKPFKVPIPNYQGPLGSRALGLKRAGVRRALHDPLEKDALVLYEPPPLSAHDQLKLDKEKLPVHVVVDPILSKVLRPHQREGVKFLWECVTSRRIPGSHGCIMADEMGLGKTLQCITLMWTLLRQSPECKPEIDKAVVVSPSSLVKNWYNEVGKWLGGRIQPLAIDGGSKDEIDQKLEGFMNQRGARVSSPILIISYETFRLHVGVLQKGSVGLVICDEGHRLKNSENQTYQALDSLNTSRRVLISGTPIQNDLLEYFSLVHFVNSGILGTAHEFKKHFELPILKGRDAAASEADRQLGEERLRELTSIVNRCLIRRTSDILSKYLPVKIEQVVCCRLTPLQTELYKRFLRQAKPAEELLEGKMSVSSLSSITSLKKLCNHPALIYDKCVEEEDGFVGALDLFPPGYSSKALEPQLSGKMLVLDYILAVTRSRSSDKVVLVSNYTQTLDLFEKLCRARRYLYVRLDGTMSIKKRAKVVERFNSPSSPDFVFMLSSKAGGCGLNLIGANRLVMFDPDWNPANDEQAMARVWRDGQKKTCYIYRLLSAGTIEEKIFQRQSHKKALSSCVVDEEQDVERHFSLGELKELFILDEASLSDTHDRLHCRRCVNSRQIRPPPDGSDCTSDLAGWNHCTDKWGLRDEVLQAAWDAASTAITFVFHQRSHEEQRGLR
# [5] = biological target: T3, High affinity choline transporter 1 (Homo sapiens, UniProt Q9GZV3); experiment: CHT inhibitors, dose response, cell-based, 5-point CRC, membrane potential dye (AID 504840); assay type: functional
# T3 sequence (Q9GZV3 whole entry): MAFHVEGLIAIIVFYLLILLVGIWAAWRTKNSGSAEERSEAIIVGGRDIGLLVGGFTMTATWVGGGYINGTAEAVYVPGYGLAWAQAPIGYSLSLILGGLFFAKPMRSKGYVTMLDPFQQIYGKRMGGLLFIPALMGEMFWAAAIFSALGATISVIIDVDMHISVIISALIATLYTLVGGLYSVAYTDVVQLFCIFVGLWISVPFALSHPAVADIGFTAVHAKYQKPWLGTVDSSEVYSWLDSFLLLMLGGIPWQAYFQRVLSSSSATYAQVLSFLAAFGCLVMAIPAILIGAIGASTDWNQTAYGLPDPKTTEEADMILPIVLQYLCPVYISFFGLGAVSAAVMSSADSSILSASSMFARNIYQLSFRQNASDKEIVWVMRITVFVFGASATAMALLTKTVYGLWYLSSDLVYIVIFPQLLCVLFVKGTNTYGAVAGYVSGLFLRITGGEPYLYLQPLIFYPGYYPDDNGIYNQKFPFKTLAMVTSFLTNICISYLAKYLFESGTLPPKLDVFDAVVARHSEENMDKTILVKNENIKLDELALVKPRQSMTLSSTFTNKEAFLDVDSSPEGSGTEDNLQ
# [6] = biological target: T3, High affinity choline transporter 1; experiment: CHT inhibitors, dose response, cell-based, 10-point CRC, membrane potential dye (AID 588401); assay type: functional;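 also: membrane potential dye fluorescence of choline-evoked depolarization via CHT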
# [7] = Counterscreen for inhibitors of Trypanosoma brucei methionyl tRNA synthetase (MetRS): Luminescence-based cell-based high throughput dose response assay to identify compounds that are cytotoxic to Jurkat human T lymphocyte cells.; assay type: functional
# [8] = biological target: 72 kDa type IV collagenase (Homo sapiens, UniProt P08253); experiment: Dose Response validation of uHTS RPN11 inhibitor hits using a MMP-2 Fluorescence assay.; assay type: functional
# Chain of 72 kDa type IV collagenase (P08253 whole entry): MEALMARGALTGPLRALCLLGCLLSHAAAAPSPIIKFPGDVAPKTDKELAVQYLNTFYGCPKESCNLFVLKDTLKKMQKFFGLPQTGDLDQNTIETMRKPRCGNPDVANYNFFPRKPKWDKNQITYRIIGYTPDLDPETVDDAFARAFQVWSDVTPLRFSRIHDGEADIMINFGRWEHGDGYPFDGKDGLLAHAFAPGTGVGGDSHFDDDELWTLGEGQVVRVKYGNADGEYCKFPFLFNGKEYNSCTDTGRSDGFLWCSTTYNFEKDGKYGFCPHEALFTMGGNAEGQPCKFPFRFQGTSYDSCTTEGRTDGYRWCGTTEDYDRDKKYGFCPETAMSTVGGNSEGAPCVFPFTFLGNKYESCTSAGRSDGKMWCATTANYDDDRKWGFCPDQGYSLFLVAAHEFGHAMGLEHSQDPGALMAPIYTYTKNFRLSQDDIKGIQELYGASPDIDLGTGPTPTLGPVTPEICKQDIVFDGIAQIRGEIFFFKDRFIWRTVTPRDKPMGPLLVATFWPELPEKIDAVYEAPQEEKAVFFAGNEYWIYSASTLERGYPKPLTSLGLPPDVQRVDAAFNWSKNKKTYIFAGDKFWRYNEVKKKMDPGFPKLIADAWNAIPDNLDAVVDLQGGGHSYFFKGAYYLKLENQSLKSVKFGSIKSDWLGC
# [9] = biological target: 26S proteasome non-ATPase regulatory subunit 14 (Homo sapiens, UniProt O00487); experiment: inhibition of proteasome subunit RPN11 – biochemical, fluorescence polarization, uHTS hits, confirmation (AID 602368); assay type: functional
# Chain of 26S proteasome non-ATPase regulatory subunit 14 (O00487 whole entry): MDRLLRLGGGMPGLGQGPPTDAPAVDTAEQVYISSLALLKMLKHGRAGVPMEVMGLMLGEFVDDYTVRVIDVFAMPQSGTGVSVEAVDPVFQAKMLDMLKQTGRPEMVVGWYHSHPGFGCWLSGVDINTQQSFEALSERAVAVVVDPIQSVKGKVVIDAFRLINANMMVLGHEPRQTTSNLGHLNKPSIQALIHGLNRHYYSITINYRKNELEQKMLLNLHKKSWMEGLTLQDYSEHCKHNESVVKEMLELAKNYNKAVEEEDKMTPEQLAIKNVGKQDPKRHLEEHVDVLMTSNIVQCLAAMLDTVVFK
# Prothrombin = Prothrombin (Bos taurus, UniProt P00735); experiment: thrombin inhibition, dose response, biochemical, fluorescence polarization, uHTS hits (AID 602369); assay type: functional
# [10] = biological target: Protein disulfide-isomerase (Homo sapiens, UniProt P07237); experiment: PDI inhibitors, insulin aggregation turbidity, dose response, biochemical, absorbance, cherry-picked samples (AID 602350); assay type: functional
# [11] = biological target: Hepatocyte nuclear factor 4-alpha (Homo sapiens, UniProt P41235); assay type: functional, cell-based;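 also: biochemical luminescence-based dose-response counterscreen measuring inhibition of HNF4 dimerization, run alongside a screen for blockers of ABHD5–perilipin-5 interaction; split luciferase complementation of HNF4 fusion proteins in cell lysate measuring dimerization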
# Chain of Hepatocyte nuclear factor 4-alpha (P41235 whole entry, the tested form may be a part): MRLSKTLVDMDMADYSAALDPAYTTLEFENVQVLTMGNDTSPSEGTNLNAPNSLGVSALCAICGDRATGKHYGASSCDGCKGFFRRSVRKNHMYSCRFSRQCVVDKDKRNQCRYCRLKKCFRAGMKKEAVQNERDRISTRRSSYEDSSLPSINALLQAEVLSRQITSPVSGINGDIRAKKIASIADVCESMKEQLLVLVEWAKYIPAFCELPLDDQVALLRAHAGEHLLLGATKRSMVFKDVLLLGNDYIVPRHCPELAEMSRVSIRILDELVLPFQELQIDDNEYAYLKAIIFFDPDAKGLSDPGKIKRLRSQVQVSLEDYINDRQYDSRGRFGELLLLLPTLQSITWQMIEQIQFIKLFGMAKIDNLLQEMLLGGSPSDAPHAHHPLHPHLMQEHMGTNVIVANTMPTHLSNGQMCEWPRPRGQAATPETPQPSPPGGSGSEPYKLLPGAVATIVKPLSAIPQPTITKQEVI
# [12] = biological target: T4, Probable nicotinate-nucleotide adenylyltransferase (Staphylococcus aureus (strain N315), UniProt P65502); assay type: functional, Staphylococcus aureus subsp. aureus N315;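 as to IC50 Mean: confirmatory dose-response retesting of NadD inhibitor hits first found in an ultra-high-throughput screen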
# T4 sequence (P65502 whole entry): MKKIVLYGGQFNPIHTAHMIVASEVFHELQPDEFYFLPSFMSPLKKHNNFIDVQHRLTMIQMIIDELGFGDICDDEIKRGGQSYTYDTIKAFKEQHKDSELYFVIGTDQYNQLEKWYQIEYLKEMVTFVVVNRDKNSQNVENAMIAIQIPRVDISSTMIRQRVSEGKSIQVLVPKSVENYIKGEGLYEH
# Aminopeptidase N = biological target: T5, Aminopeptidase N (Plasmodium falciparum FcB1/Columbia, UniProt O96935); experiment: P. falciparum M1AAP inhibitors, biochemical, fluorogenic H-Leu-NHMec substrate, 1536-well (AID 1445); design: species or system Plasmodium falciparum 3D7, 3D7
# T5 sequence (O96935 whole entry): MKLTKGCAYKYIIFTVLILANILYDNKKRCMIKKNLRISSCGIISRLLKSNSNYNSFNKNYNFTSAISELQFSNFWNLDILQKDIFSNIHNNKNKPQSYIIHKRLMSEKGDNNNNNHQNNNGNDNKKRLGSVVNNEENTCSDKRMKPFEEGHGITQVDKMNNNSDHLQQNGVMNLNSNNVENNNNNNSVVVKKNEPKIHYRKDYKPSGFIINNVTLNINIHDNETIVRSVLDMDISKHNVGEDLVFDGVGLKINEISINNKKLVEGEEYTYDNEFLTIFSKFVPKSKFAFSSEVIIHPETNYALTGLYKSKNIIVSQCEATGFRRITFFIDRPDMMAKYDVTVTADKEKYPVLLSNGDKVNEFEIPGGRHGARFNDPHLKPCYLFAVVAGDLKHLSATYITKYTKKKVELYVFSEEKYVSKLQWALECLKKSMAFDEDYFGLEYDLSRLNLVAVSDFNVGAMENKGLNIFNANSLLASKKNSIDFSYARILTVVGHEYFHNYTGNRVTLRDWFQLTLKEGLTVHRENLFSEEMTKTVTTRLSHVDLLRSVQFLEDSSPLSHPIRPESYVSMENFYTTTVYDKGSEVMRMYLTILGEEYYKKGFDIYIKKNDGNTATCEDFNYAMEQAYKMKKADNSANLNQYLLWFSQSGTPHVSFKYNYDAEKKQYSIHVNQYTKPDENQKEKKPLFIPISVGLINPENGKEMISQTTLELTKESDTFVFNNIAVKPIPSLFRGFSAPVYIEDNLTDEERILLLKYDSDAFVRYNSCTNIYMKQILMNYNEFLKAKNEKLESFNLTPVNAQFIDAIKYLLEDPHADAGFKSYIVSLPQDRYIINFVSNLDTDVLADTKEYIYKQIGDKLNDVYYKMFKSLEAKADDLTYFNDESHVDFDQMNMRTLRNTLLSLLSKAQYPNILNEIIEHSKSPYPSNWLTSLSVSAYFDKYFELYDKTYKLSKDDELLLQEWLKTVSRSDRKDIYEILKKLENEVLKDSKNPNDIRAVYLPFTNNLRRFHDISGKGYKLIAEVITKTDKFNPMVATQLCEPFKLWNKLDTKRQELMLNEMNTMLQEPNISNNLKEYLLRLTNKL
# Genome polyprotein = Genome polyprotein (dengue virus type 2, UniProt P29990); experiment: Dengue-2 NS5 methyltransferase inhibitors, primary screen, biochemical, confirmation dose response (AID 588689); assay type: functional
# Chain of Genome polyprotein (P29990 2492-3391 limits assumed): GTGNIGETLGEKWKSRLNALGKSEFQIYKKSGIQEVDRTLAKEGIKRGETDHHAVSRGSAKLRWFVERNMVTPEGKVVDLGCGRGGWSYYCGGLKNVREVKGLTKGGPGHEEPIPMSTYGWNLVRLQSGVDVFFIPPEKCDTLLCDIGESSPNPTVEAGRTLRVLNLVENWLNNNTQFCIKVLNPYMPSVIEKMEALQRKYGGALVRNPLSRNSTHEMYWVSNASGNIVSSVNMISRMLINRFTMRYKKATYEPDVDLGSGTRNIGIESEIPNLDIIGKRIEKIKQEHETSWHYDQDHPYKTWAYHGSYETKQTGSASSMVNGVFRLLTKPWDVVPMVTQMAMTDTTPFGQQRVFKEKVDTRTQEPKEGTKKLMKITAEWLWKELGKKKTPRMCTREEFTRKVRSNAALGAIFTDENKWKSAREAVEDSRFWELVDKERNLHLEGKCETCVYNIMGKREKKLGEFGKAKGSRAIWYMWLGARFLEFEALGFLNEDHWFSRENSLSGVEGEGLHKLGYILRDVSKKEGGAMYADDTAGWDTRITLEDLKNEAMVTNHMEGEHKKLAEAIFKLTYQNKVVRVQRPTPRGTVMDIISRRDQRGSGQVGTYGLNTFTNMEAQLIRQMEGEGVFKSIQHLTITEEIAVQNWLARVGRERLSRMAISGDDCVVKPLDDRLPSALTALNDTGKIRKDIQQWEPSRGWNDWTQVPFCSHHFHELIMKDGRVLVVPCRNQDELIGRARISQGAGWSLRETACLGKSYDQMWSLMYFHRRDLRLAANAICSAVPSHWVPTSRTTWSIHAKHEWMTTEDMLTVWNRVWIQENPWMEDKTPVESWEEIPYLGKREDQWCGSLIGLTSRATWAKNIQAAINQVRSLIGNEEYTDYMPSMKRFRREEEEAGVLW
# [13] = biological target: T4, Probable nicotinate-nucleotide adenylyltransferase; assay type: functional, Staphylococcus aureus subsp. aureus N315; conditions: read-out: IC50_Mean
compound,measurement,setting,value
CC1=C/C(=C\c2ccc(Br)o2)C(=O)O1,AC50,[1],4.71 µM (active)
same,IC50,[2],4.99 µM (active)
CN1CCN(c2[nH]cnc3c4cc(F)ccc4nc2-3)CC1,AC50,[3],2.8 µM (active)
same,AC50,[4],28.8 µM (active)
COc1ccc(C2=NN(c3ccc(C(=O)O)cc3)C(c3ccc(OC)c(OC)c3)C2)cc1 (stereo not given),IC50,[5],4.79 µM (active)
same,IC50,[6],3.55 µM (active)
Cc1cccc(NS(=O)(=O)c2ccc3[nH]c(-c4ccccc4)nc3c2)c1C,IC50,[7],25.1 µM (inactive)
O=C(OCCCOc1ccc(F)cc1)c1ccc(O)cc1O,IC50,[5],3.59 µM (active)
same,IC50,[6],4.47 µM (active)
O=C(Nc1nc(-c2ccc(F)c(F)c2)cs1)Nc1ccc(F)cc1F,IC50,[8],> 100 µM (inactive)
same,IC50,[9],30.3 µM (active)
same,IC50,Prothrombin,78.3 µM (active)
N=C1CCCN1CC(=O)c1ccc(Cl)cc1,IC50,[5],6.01 µM (active)
same,IC50,[6],2.7 µM (active)
COc1cccc(/C=C(/CC(=O)Nc2ccc(N3CCOCC3)cc2)c2nc3ccccc3s2)c1,IC50,[8],> 100 µM (inactive)
same,IC50,[9],12.6 µM (active)
same,IC50,Prothrombin,25 µM (active)
CC(=O)OC[C@H]1O[C@@H](Oc2cc(O)cc3oc(-c4ccc(O)cc4)cc(=O)c23)[C@H](O[C@@H]2O[C@@H](C)[C@H](O)[C@@H](O)[C@H]2O)[C@@H](O)[C@@H]1O,AC50,[10],19.5 µM (active)
C=C1C(=O)O[C@H]2C[C@H]1[C@@H](OC(C)=O)C/C(C)=C/CC/C(C)=C\CC[C@]2(C)O,IC50,[11],3.21 µM (active)
Cc1cc(C(=O)NC2CC(C)(C)Cc3c2cnn3-c2cccc(F)c2)nn1C (stereo not given),AC50,[3],2.72 µM (active)
Cc1cccc(C)c1NC(=O)C(c1ccc(C#N)cc1)n1c(=O)c(-c2ccco2)nc2ccccc21 (stereo not given),IC50,[11],1.86 µM (active)
CCCOc1ccc(C(=O)N/N=C/c2ccc(-c3ccc(S(=O)(=O)Nc4ncccn4)cc3)o2)cc1,IC50,[12],6.45 µM (active)
same,IC50,Aminopeptidase N,26.1 µM (active)
same,IC50,Genome polyprotein,> 100 µM (active)
same,IC50,[13],31 µM (active)
